Data as given in ChEMBL document CHEMBL1201862, “PubChem BioAssay data set” (2004).
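Five concentrations, 48 hours, 96-well plates. Abbreviation: GI50, concentration required for 50% inhibition of growth.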 Activity calls are given as the source filed them. Rule as the data show it: active = GI50 up to about 1.1 µM and inactive = higher.

Assays:
Test in all cases: DTP human tumour cell line panel, 48 h
MDA-N = system: MDA-N
M14 = system: M14
HL-60 = system: HL-60
SK-OV-3 = system: SK-OV-3
T47D = system: T47D
SN12C = system: SN12C
COLO 205 = system: COLO 205
KM12 = system: KM12
HCT-15 = system: HCT-15
MCF7 = system: MCF7
NCI/ADR-RES = system: NCI/ADR-RES
CCRF-CEM = system: CCRF-CEM
786-0 = system: 786-0
OVCAR-4 = system: OVCAR-4
IGROV-1 = system: IGROV-1
NCI-H226 = system: NCI-H226
HOP-92 = system: HOP-92
SNB-75 = system: SNB-75
HCC 2998 = system: HCC 2998

| SMILES | GI50 (MDA-N) | GI50 (M14) | GI50 (HL-60) | GI50 (SK-OV-3) | GI50 (T47D) | GI50 (SN12C) | GI50 (COLO 205) | GI50 (KM12) | GI50 (HCT-15) [µM] | GI50 (MCF7) | GI50 (NCI/ADR-RES) | GI50 (CCRF-CEM) | GI50 (786-0) | GI50 (OVCAR-4) | GI50 (IGROV-1) | GI50 (NCI-H226) | GI50 (HOP-92) | GI50 (SNB-75) | GI50 (HCC 2998) |
| --- | --- | --- | --- | --- | --- | --- | --- | --- | --- | --- | --- | --- | --- | --- | --- | --- | --- | --- | --- |
| O=S(=O)(CC(O)C(Cl)(Cl)Cl)NNc1ccccc1 (stereo not given) | > 100 µM (inactive) | 81.7 µM (inactive) | 47.6 µM (inactive) | > 100 µM (inactive) | 81.5 µM (inactive) | > 100 µM (inactive) | 75 µM (inactive) | > 100 µM (inactive) | 72.1 | > 100 µM (inactive) | > 100 µM (inactive) | > 100 µM (inactive) | > 100 µM (inactive) | > 100 µM (inactive) | > 100 µM (inactive) | > 100 µM (inactive) | > 100 µM (inactive) | > 100 µM (inactive) | – |
| CCOC(=O)c1c(N2CCCC2)ncn(C)c1=S | – | > 100 µM (inactive) | > 100 µM (inactive) | – | > 100 µM (inactive) | > 100 µM (inactive) | > 100 µM (inactive) | > 100 µM (inactive) | > 100 | > 100 µM (inactive) | > 100 µM (inactive) | > 100 µM (inactive) | > 100 µM (inactive) | > 100 µM (inactive) | > 100 µM (inactive) | > 100 µM (inactive) | 93.3 µM (inactive) | – | > 100 µM (inactive) |
| CCC1=C(CC2NCCc3cc(OC)c(OC)cc32)CC2c3ccccc3CCN2C1 (stereo not given) | 14 µM (inactive) | 14.3 µM (inactive) | 9.06 µM (inactive) | > 100 µM (inactive) | 20.7 µM (inactive) | 21.7 µM (inactive) | 10.2 µM (inactive) | 23.7 µM (inactive) | 37.9 | 18.7 µM (inactive) | 29.6 µM (inactive) | 10.4 µM (inactive) | 14 µM (inactive) | 22.5 µM (inactive) | 21.2 µM (inactive) | 19 µM (inactive) | 12.8 µM (inactive) | 19.8 µM (inactive) | – |
| C=C(C(=O)O)C1CCC(CC/C=C(\C)CC/C=C(\C)CCC=C(C)C)CO1 (stereo not given) | 11 µM (inactive) | 11.1 µM (inactive) | 4.01 µM (inactive) | 82.2 µM (inactive) | 26.2 µM (inactive) | 14.2 µM (inactive) | 11.2 µM (inactive) | 14.8 µM (inactive) | 13 | 5.97 µM (inactive) | 27.1 µM (inactive) | 22.6 µM (inactive) | 11 µM (inactive) | 27.4 µM (inactive) | 18.5 µM (inactive) | 0.0723 µM (active) | – | > 100 µM (inactive) | – |
| COc1cc(S(=O)(=O)Nc2ccc(-c3csc(N4C(=O)C(Cl)C4c4ccccc4)n3)cc2)ccc1Cl (stereo not given) | 37.5 µM (inactive) | 24 µM (inactive) | 54.6 µM (inactive) | > 100 µM (inactive) | 28.4 µM (inactive) | 24.9 µM (inactive) | 37.9 µM (inactive) | 44.2 µM (inactive) | > 100 | 27.1 µM (inactive) | > 100 µM (inactive) | 3.37 µM (inactive) | 19.2 µM (inactive) | 52.6 µM (inactive) | 4.63 µM (inactive) | – | 18.2 µM (inactive) | 22.8 µM (inactive) | – |
| O=C(C#Cc1ccccc1)N1CCCCC1 | 86.5 µM (inactive) | 84.1 µM (inactive) | 21.9 µM (inactive) | > 100 µM (inactive) | 52.6 µM (inactive) | > 100 µM (inactive) | > 100 µM (inactive) | > 100 µM (inactive) | 49.9 | 44.4 µM (inactive) | – | 50.8 µM (inactive) | 14.4 µM (inactive) | 80 µM (inactive) | 65 µM (inactive) | > 100 µM (inactive) | > 100 µM (inactive) | > 100 µM (inactive) | 84.7 µM (inactive) |
| C[C@]12CC[C@H](O)CC1=CC[C@@H]1[C@@H]2CC[C@]2(C)C(=N/N)/C(=N\O)C[C@@H]12 | 11.9 µM (inactive) | > 100 µM (inactive) | 9.91 µM (inactive) | 76 µM (inactive) | > 100 µM (inactive) | > 100 µM (inactive) | 40 µM (inactive) | 38.2 µM (inactive) | 3.94 | > 100 µM (inactive) | > 100 µM (inactive) | 44.2 µM (inactive) | 50.7 µM (inactive) | 57.4 µM (inactive) | 21 µM (inactive) | 74.3 µM (inactive) | 2.42 µM (inactive) | 7.5 µM (inactive) | – |
| COc1ccc2c(c1)CCN1CCCc3ccccc3C21 (stereo not given) | – | 15.9 µM (inactive) | – | 46.3 µM (inactive) | 45.1 µM (inactive) | 42.7 µM (inactive) | 27.6 µM (inactive) | 33.7 µM (inactive) | 37.6 | 25.4 µM (inactive) | 41.3 µM (inactive) | 37.5 µM (inactive) | 38.4 µM (inactive) | > 100 µM (inactive) | 47.6 µM (inactive) | 28.1 µM (inactive) | 46.2 µM (inactive) | 22 µM (inactive) | 23 µM (inactive) |
| COc1ccc(N2C(=O)C3ON(Cc4ccc(CC(N)=O)cc4)C(c4c5ccccc5c(C)c5ccccc45)C3C2=O)cc1 (stereo not given) | 22.3 µM (inactive) | 24.3 µM (inactive) | 14.9 µM (inactive) | > 100 µM (inactive) | 17.6 µM (inactive) | 33.7 µM (inactive) | – | 12.1 µM (inactive) | 17.1 | 17.7 µM (inactive) | 35.8 µM (inactive) | 12.4 µM (inactive) | 30 µM (inactive) | 13.6 µM (inactive) | 27.3 µM (inactive) | – | 19 µM (inactive) | 14.4 µM (inactive) | – |
| CN1CCc2c(sc3ncn(Nc4ccc(F)cc4)c(=N)c23)C1 | > 100 µM (inactive) | > 100 µM (inactive) | > 100 µM (inactive) | > 100 µM (inactive) | > 100 µM (inactive) | > 100 µM (inactive) | – | > 100 µM (inactive) | > 100 | > 100 µM (inactive) | > 100 µM (inactive) | > 100 µM (inactive) | > 100 µM (inactive) | > 100 µM (inactive) | > 100 µM (inactive) | 92 µM (inactive) | > 100 µM (inactive) | > 100 µM (inactive) | – |
| Nc1nc(N)c2ncn(-c3ccc(Br)cc3)c2n1 | 60.4 µM (inactive) | 14.6 µM (inactive) | – | 15 µM (inactive) | 29.4 µM (inactive) | 16.9 µM (inactive) | > 50.5 µM (inactive) | 14.4 µM (inactive) | 19.9 | 20.3 µM (inactive) | 10.7 µM (inactive) | 8.43 µM (inactive) | 28.1 µM (inactive) | > 38.3 µM (inactive) | 5.38 µM (inactive) | 40.6 µM (inactive) | – | 6.97 µM (inactive) | 37.7 µM (inactive) |
| CNC(=S)/C(C#N)=C(\N)N1CCCC1 | > 100 µM (inactive) | – | > 100 µM (inactive) | > 100 µM (inactive) | 57.5 µM (inactive) | > 100 µM (inactive) | > 100 µM (inactive) | > 100 µM (inactive) | > 100 | – | > 100 µM (inactive) | > 100 µM (inactive) | > 100 µM (inactive) | – | > 100 µM (inactive) | > 100 µM (inactive) | – | – | > 100 µM (inactive) |
| COc1cc(O)c2c(O)c3c(c4c2c1[C@]1(C4)C(C)=CCCC1(C)C)[C@H](O)[C@@]1(O)CC(O)=C(C(N)=O)C(=O)[C@@]1(O)C3=O | 0.333 µM (active) | 0.126 µM (active) | 0.164 µM (active) | 0.348 µM (active) | 0.365 µM (active) | 0.0531 µM (active) | 0.108 µM (active) | 0.346 µM (active) | 0.164 | 0.164 µM (active) | 0.345 µM (active) | 0.0326 µM (active) | 0.247 µM (active) | 0.245 µM (active) | 0.643 µM (active) | 0.239 µM (active) | 0.362 µM (active) | 0.108 µM (active) | – |
| CC/C(=C\c1ccc(OC)cc1)c1ccc(OC)cc1 | > 100 µM (inactive) | 72.6 µM (inactive) | – | > 100 µM (inactive) | – | > 100 µM (inactive) | > 100 µM (inactive) | > 100 µM (inactive) | 74 | > 100 µM (inactive) | > 100 µM (inactive) | > 100 µM (inactive) | 94.2 µM (inactive) | > 100 µM (inactive) | > 100 µM (inactive) | > 100 µM (inactive) | 69.7 µM (inactive) | > 100 µM (inactive) | > 100 µM (inactive) |
| Cc1c2ccncc2c(C)c2c1[nH]c1ccc(O)c(OCC(F)(F)F)c12 | – | 9.55 µM (inactive) | 2.9 µM (inactive) | 10.2 µM (inactive) | – | 8.2 µM (inactive) | 11.9 µM (inactive) | – | – | – | – | 2.33 µM (inactive) | 2.01 µM (inactive) | 4.08 µM (inactive) | 8.22 µM (inactive) | 8.13 µM (inactive) | 5.47 µM (inactive) | 9.93 µM (inactive) | 9.42 µM (inactive) |
| c1ccc([P+](c2ccccc2)(c2ccccc2)c2ccc([P+](c3ccccc3)(c3ccccc3)c3ccccc3)cc2)cc1 | 56.1 µM (inactive) | 82 µM (inactive) | 16 µM (inactive) | > 100 µM (inactive) | 27.9 µM (inactive) | 35.7 µM (inactive) | 20.1 µM (inactive) | 31 µM (inactive) | > 100 | 32.4 µM (inactive) | > 100 µM (inactive) | 22.9 µM (inactive) | > 100 µM (inactive) | – | 59.7 µM (inactive) | 65.5 µM (inactive) | – | 37.6 µM (inactive) | – |
| Cc1c([N+](=O)[O-])ccc2c(NCCCN(C)C)ccnc12 | 15 µM (inactive) | 16.3 µM (inactive) | > 100 µM (inactive) | 39.8 µM (inactive) | 25.4 µM (inactive) | 29.1 µM (inactive) | 12.2 µM (inactive) | 16.7 µM (inactive) | 17.3 | 15.9 µM (inactive) | 28.2 µM (inactive) | > 100 µM (inactive) | 26.8 µM (inactive) | 17.4 µM (inactive) | 22.2 µM (inactive) | 30.4 µM (inactive) | 16.5 µM (inactive) | 25.4 µM (inactive) | – |
